Reference: US12527778B2, “Enantiomers of a series of antiviral compounds” (Innovative Molecules GmbH, priority 2017, dated 2026)

Experiment: aqueous solubility (PBS, pH 7.4), shake flask
Type: physicochemical
Protocol: The aqueous solubility (PBS, pH 7.4) was determined at Eurofins, Cerep, Panlabs according to C. A. Lipinski et al. Adv. Drug Del. Rev. 1997:46, 3.
Measurement of the aqueous solubility was performed according to Lipinski, C. A. et al. Adv. Drug Del. Rev. 1997:46, 3. The relevant information from the literature is described below.
In addition, chromatographic purity (%) was defined as the peak area of the principal peak relative to the total integrated peak area in the HPLC chromatogram of the calibration standard.

SMILES: Cc1nc(N(C)C(=O)Cc2ccc(-c3cc(F)ccc3F)cc2)sc1S(C)(=N)=O (racemic) [Example 7, 2-(2′,5′-Difluoro-[1,1′-biphenyl]-4-yl)-N-methyl-N-(4-methyl-5-(S-methylsulfonimidoyl)thiazol-2-yl)acetamide]
- solubility in comparison to Example 87 (WO2001/047904): significantly increased solubility (at least one order of magnitude)
